Measurements from patent US9169260B2 (MERCK SHARP & DOHME CORP., priority 2011, dated 2015).
pIC50: −log10 of the molar value.

Biological target: GST tagged IRAK-4 (Homo sapiens (Human), UniProt Q9NWZ3)
Experiment: IRAK-4 Kinase Assay (IMAP fluorescence polarization)
Assay type: biochemical
Conditions: 100 μM ATP, 30 minutes at 25° C.; for IC50: μM
How it was run: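 Activity was read by IMAP fluorescence polarization, where phosphopeptide binding to M(III) nanoparticles raises FP. The 30-minute, 25° C reaction used 100 μM ATP, 100 nM RP7030 substrate and 0.5 nM GST-IRAK-4 in pH 7.2 Tris buffer with MgCl2, DTT and Tween 20.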

Chain of GST tagged IRAK-4 (Q9NWZ3 whole entry): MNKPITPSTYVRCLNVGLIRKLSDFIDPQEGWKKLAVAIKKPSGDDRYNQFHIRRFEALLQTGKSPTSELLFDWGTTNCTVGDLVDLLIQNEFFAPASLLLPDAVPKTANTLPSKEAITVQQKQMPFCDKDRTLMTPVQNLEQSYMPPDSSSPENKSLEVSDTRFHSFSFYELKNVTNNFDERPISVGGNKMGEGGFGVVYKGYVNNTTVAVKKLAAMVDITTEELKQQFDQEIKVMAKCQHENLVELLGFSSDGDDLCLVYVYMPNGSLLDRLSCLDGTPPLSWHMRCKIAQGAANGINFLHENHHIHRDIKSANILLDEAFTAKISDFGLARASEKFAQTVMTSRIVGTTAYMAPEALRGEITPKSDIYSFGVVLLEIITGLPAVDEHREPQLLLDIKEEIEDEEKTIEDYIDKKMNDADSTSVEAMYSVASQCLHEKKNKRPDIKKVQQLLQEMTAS

| pIC50 | IC50 | Compound |
| --- | --- | --- |
| > 7.00 | – | COc1ccc(-n2nc(C3CCN(S(=O)(=O)C4CC4)CC3)cc2NC(=O)c2cnn3cccnc23)c(F)c1 [Example 63, N-(3-(1-(cyclopropylsulfonyl)piperidin-4-yl)-1-(2-fluoro-4-methoxyphenyl)-1H-pyrazol-5-yl)pyrazolo[1,5-a]pyrimidine-3-carboxamide] |
| > 7.00 | – | COc1ccc(-n2nc(C3CCNCC3)cc2NC(=O)c2cnn3cc(C(N)=O)cnc23)cc1 [Example 105, N3-(1-(4-methoxyphenyl)-3-(piperidin-4-yl)-1H-pyrazol-5-yl)pyrazolo[1,5-a]pyrimidine-3,6-dicarboxamide] |
| > 7.00 | – | Cc1ccc(-n2nc(C3CCN(C4CCC(NS(C)(=O)=O)CC4)CC3)cc2NC(=O)c2cnn3cccnc23)nc1 (stereo not shown) [Example 263, N-[1-(5-methylpyridin-2-yl)-3-(1-{4-[(methylsulfonyl)amino]cyclohexyl]piperidin-4-yl)-1H-pyrazol-5-yl}pyrazolo[1,5-a]pyrimidine-3-carboxamide] |
| > 7.00 | – | Cc1ccc(-n2nc(C3CCN(S(=O)(=O)c4sc(C)nc4C)CC3)cc2NC(=O)c2cnn3cccnc23)cc1 [Example 364, N-[3-{1-[(2,4-dimethyl-1,3-thiazol-5-yl)sulfonyl]piperidin-4-yl}-1-(4-methylphenyl)-1H-pyrazol-5-yl]pyrazolo[1,5-a]pyrimidine-3-carboxamide] |
| > 7.00 | – | O=C(Nc1cc(C2CCNCC2)nn1-c1ccc(C2CC2)cn1)c1cnn2cccnc12 [Example 146, N-(1-(5-cyclopropylpyridin-2-yl)-3-(piperidin-4-yl)-1H-pyrazol-5-yl)pyrazolo[1,5-a]pyrimidine-3-carboxamide] |
| – | < 1 µM | Cc1ccc(-n2nc(C3CN(S(=O)(=O)C4CC4)C3)cc2NC(=O)c2cnn3cccnc23)cc1 [Example 84, N-(3-(1-(cyclopropylsulfonyl)azetidin-3-yl)-1-(p-tolyl)-1H-pyrazol-5-yl)pyrazolo[1,5-a]pyrimidine-3-carboxamide] |
| > 7.00 | – | Cc1ccc(-n2nc(-c3ccc(S(C)(=O)=O)cc3)cc2NC(=O)c2cnn3cccnc23)cc1 [Example 134, N-(3-(4-(methylsulfonyl)phenyl)-1-(p-tolyl)-1H-pyrazol-5-yl)pyrazolo[1,5-a]pyrimidine-3-carboxamide] |
| – | < 1 µM | CN1CCC(c2cc(NC(=O)c3cnn4cccnc34)n(-c3ccc(F)cc3F)n2)CC1 [Example 48, N-(1-(2,4-difluorophenyl)-3-(1-methylpiperidin-4-yl)-1H-pyrazol-5-yl)pyrazolo[1,5-a]pyrimidine-3-carboxamide] |
| – | < 1 µM | Cc1ccc(-n2nc(C3CCN(S(=O)(=O)c4cccc5ccccc45)CC3)cc2NC(=O)c2cnn3cccnc23)cc1 [Example 357, N-{1-(4-methylphenyl)-3-[1-(naphthalen-1-ylsulfonyl)piperidin-4-yl]-1H-pyrazol-5-yl}pyrazolo[1,5-a]pyrimidine-3-carboxamide] |
| – | < 1 µM | Cc1nn(C)c2nc(-n3nc(C4CCN(S(C)(=O)=O)CC4)cc3NC(=O)c3cnn4cccnc34)ccc12 [Example 175, N-(1-(1,3-dimethyl-1H-pyrazolo[3,4-b]pyridin-6-yl)-3-(1-(methylsulfonyl)piperidin-4-yl)-1H-pyrazol-5-yl)pyrazolo[1,5-a]pyrimidine-3-carboxamide] |
| – | < 1 µM | Cc1ccc(-n2nc(C3CCN(C(C)CC(F)(F)F)CC3)cc2NC(=O)c2cnn3cccnc23)cc1 (stereo not shown) [Example 260, N-{1-(4-methylphenyl)-3-[1-(3,3,3-trifluoro-1-methylpropyl)piperidin-4-yl]-1H-pyrazol-5-yl}pyrazolo[1,5-a]pyrimidine-3-carboxamide] |
| > 7.00 | – | C[C@@H](N)c1ccc(-n2nc(C3CCN(S(C)(=O)=O)CC3)cc2NC(=O)c2cnn3cccnc23)nc1 [Example 163, (R)—N-(1-(5-(1-aminoethyl)pyridin-2-yl)-3-(1-(methylsulfonyl)piperidin-4-yl)-1H-pyrazol-5-yl)pyrazolo[1,5-a]pyrimidine-3-carboxamide] |
| > 7.00 | – | Cc1ccc(-n2nc(C3CCN(C4CC4)CC3)cc2NC(=O)c2cnn3cccnc23)cc1 [Example 40, N-(3-(1-cyclopropylpiperidin-4-yl)-1-(p-tolyl)-1H-pyrazol-5-yl)pyrazolo[1,5-a]pyrimidine-3-carboxamide] |
| – | < 1 µM | Cc1ccc(-n2nc(C3CCN(C4CN(S(C)(=O)=O)C4)CC3)cc2NC(=O)c2cnn3cccnc23)cc1 [Example 244, N-[1-(4-methylphenyl)-3-{1-[1-(methylsulfonyl)azetidin-3-yl]piperidin-4-yl}-1H-pyrazol-5-yl]pyrazolo[1,5-a]pyrimidine-3-carboxamide] |
| > 7.00 | – | O=C(Nc1cc(C2CCN(C3CCC3)CC2)nn1-c1ccc(C2CC2)cc1F)c1cnn2cccnc12 [Example 75, N-(3-(1-cyclobutylpiperidin-4-yl)-1-(4-cyclopropyl-2-fluorophenyl)-1H-pyrazol-5-yl)pyrazolo[1,5-a]pyrimidine-3-carboxamide] |
| – | < 1 µM | Cc1ccc(-n2nc(-c3c(F)cccc3OCc3ccccc3)cc2NC(=O)c2cnn3cccnc23)cc1 [Example 339, N-{3-[2-(benzyloxy)-6-fluorophenyl]-1-(4-methylphenyl)-1H-pyrazol-5-yl}pyrazolo[1,5-a]pyrimidine-3-carboxamide] |

| pIC50 | IC50 | Compound |
| --- | --- | --- |
| – | < 1 µM | COc1ccc(S(=O)(=O)N2CCC(c3cc(NC(=O)c4cnn5cccnc45)n(-c4ccc(C)cc4)n3)CC2)c(OC)c1 [Example 372, N-[3-{1-[(2,4-dimethoxyphenyl)sulfonyl]piperidin-4-yl}-1-(4-methylphenyl)-1H-pyrazol-5-yl]pyrazolo[1,5-a]pyrimidine-3-carboxamide] |
| > 7.00 | – | Cc1ccc(-n2nc(-c3ccc(S(N)(=O)=O)cc3)cc2NC(=O)c2cnn3cccnc23)cc1 [Example 99, N-(3-(4-sulfamoylphenyl)-1-(p-tolyl)-1H-pyrazol-5-yl)pyrazolo[1,5-a]pyrimidine-3-carboxamide] |
| > 7.00 | – | Cc1ccc(-n2nc(C3CCC(C(=O)N(C)C)CC3)cc2NC(=O)c2cnn3cccnc23)cc1 (stereo not shown) [Example 96, N-(3-(4-(dimethylcarbamoyl)cyclohexyl)-1-(p-tolyl)-1H-pyrazol-5-yl)pyrazolo[1,5-a]pyrimidine-3-carboxamide] |
| – | < 1 µM | CCCCS(=O)(=O)N1CCC(c2cc(NC(=O)c3cnn4cccnc34)n(-c3ccc(C)cc3)n2)CC1 [Example 369, N-{3-[1-(butylsulfonyl)piperidin-4-yl]-1-(4-methylphenyl)-1H-pyrazol-5-yl}pyrazolo[1,5-a]pyrimidine-3-carboxamide] |
| – | < 1 µM | Cc1ccc(-n2nc(C3CCN(C(C)c4ncccc4F)CC3)cc2NC(=O)c2cnn3cccnc23)cc1 (stereo not shown) [Example 212, N-(3-(1-(1-(3-fluoropyridin-2-yl)ethyl)piperidin-4-yl)-1-(p-tolyl)-1H-pyrazol-5-yl)pyrazolo[1,5-a]pyrimidine-3-carboxamide] |
| > 7.00 | – | Cc1ccc(-n2nc(C3CCN(C4Cc5ccccc5C4)CC3)cc2NC(=O)c2cnn3cccnc23)nc1 [Example 282, N-{3-[1-(2,3-dihydro-1H-inden-2-yl)piperidin-4-yl]-1-(5-methylpyridin-2-yl)-1H-pyrazol-5-yl}pyrazolo[1,5-a]pyrimidine-3-carboxamide] |
| – | < 1 µM | COc1ccc(-n2nc(C3CCNCC3)cc2NC(=O)c2cnn3cc(Br)cnc23)cc1 [Example 104, 6-bromo-N-(1-(4-methoxyphenyl)-3-(piperidin-4-yl)-1H-pyrazol-5-yl)pyrazolo[1,5-a]pyrimidine-3-carboxamide] |
| – | < 1 µM | Cc1ccc(-n2nc(C3CCN(C4CN(C(=O)NC(C)C)C4)CC3)cc2NC(=O)c2cnn3cccnc23)cc1 [Example 235, N-[3-(1-{1-[(1-methylethyl)carbamoyl]azetidin-3-yl}piperidin-4-yl)-1-(4-methylphenyl)-1H-pyrazol-5-yl]pyrazolo[1,5-a]pyrimidine-3-carboxamide] |
| > 7.00 | – | Cc1ccc(-n2nc(C3CCN(C4CCC(C#N)CC4)CC3)cc2NC(=O)c2cnn3cccnc23)nc1 (stereo not shown) [Example 265, N-{3-[1-(4-cyanocyclohexyl)piperidin-4-yl]-1-(5-methylpyridin-2-yl)-1H-pyrazol-5-yl}pyrazolo[1,5-a]pyrimidine-3-carboxamide] |
| > 7.00 | – | Cc1ccc(-n2nc(C3CCN(CC4CCOC4)CC3)cc2NC(=O)c2cnn3cccnc23)cc1 (stereo not shown) [Example 228, N-{1-(4-methylphenyl)-3-[1-(tetrahydrofuran-3-ylmethyl)piperidin-4-yl]-1H-pyrazol-5-yl}pyrazolo[1,5-a]pyrimidine-3-carboxamide] |
| > 7.00 | – | Cc1ccc(-n2nc(C3CCN(C(C)C)CC3)cc2NC(=O)c2cnn3cccnc23)c(F)c1 [Example 58, N-(1-(2-fluoro-4-methylphenyl)-3-(1-isopropylpiperidin-4-yl)-1H-pyrazol-5-yl)pyrazolo[1,5-a]pyrimidine-3-carboxamide] |
| > 7.00 | – | O=C(Nc1cc(C2CCN(C3CCC3)CC2)nn1-c1ccc(F)cc1F)c1cnn2cccnc12 [Example 49, N-(3-(1-cyclobutylpiperidin-4-yl)-1-(2,4-difluorophenyl)-1H-pyrazol-5-yl)pyrazolo[1,5-a]pyrimidine-3-carboxamide] |
| > 7.00 | – | Cc1ccc(-n2nc(C3CCN(CC(F)(F)F)CC3)cc2NC(=O)c2cnn3cccnc23)cc1 [Example 41, N-(1-(p-tolyl)-3-(1-(2,2,2-trifluoroethyl)piperidin-4-yl)-1H-pyrazol-5-yl)pyrazolo[1,5-a]pyrimidine-3-carboxamide] |
| > 7.00 | – | Cc1ccc(-n2nc(C3CCN(C4CCOCC4)CC3)cc2NC(=O)c2cnn3cccnc23)cc1 [Example 206] |
| – | < 1 µM | CCC(=O)N1CC(N2CCC(c3cc(NC(=O)c4cnn5cccnc45)n(-c4ccc(C)cc4)n3)CC2)C1 [Example 249, N-{1-(4-methylphenyl)-3-[1-(1-propanoylazetidin-3-yl)piperidin-4-yl]-1H-pyrazol-5-yl}pyrazolo[1,5-a]pyrimidine-3-carboxamide] |
